# From publication PMC4452589, “An evaluation of the brain distribution of [^11C]GSK1034702, a muscarinic-1 (M1) positive allosteric modulator in the living human brain using positron emission tomography” (EJNMMI Research, 2014)
# Like-named read-outs stand apart in the source and are kept apart here.
# Test: [11C]GSK1034702 PET brain distribution and kinetics in healthy male humans
# Format: in vivo
# Details: human
# Protocol: An open-label PET study (GSK study number 110771) was conducted to assess the transport of [^11C]GSK1034702 across the BBB and its distribution in the living human brain. Four healthy males aged between 35 and 55 years old, with body mass index (BMI) between 19.0 and 29.0 kg/m^2, and the absence of past or present neurological, medical or psychiatric illnesses and concomitant medications were enrolled. Clinical status was assessed by history, physical examination, routine blood tests, urine toxicology and electrocardiogram. All subjects provided written informed consent. The study was approved by the Edinburgh Independent Ethics Committee for Medical Research and permission to administer radioisotopes was obtained from the Administration of Radioactive Substances Advisory Committee of the UK. Subjects were recruited by and monitored by the Hammersmith Medicines Research (HMR) clinic. All scanning procedures were performed at the GlaxoSmithKline Clinical Imaging Center, Hammersmith Hospital, London.
# Each subject underwent a single study day, during which PET imaging was performed. T1-weighted structural MRI scan was performed for all subjects to provide neuroanatomical information. A tracer dose of [^11C]GSK1034702 (mass <50 μg) was administered as an IV bolus immediately before each PET scan. During the scanning day, each subject received a baseline [^11C]GSK1034702 scan, followed by a single 5-mg oral dose (p.o.) of […] and a subsequent [^11C]GSK1034702 scan approximately 4 h post-dose. Subjects returned to the clinic for a follow-up visit 7 to 14 days following the oral dose of GSK1034702.
# Dynamic PET data were acquired using a Siemens Biograph 6 Truepoint with TrueV PET-CT (Siemens Healthcare, Malvern, PA, USA) in three-dimensional (3D) mode. A computed tomography (CT) scan was acquired for attenuation correction of PET data prior to administration of the radiotracer. A cannula was inserted under local anaesthesia into the radial artery, contralateral to the tracer injection site, and used to collect arterial blood samples to estimate the time course of radioactivity and metabolism of GSK1034702. The radiotracer was administered as an IV bolus over 20 s, and dynamic PET data were acquired for 90 min.
# Arterial blood radioactivity was measured continuously for the first 15 min after [^11C]GSK1034702 injection, using a continuous sampling system (ABSS Allogg, Mariefred, Sweden). In addition, 12 serial discrete blood samples were obtained (at 5, 10, 15, 20, 25, 30, 40, 50, 60, 70, 80 and 90 min post injection), to determine whole blood and plasma activity. Seven samples (at 5, 10, 20, 30, 50, 70 and 90 min) were further processed by HPLC to measure the fraction of plasma activity representing unmetabolised GSK1034702. For all human studies, the non-protein-bound fraction of [^11C]GSK1034702 in arterial plasma (fP) was assessed by ultrafiltration for the blood sample taken at the beginning of the scan.
# Emission PET data were binned into 26 frames (durations: 8 × 15 s, 3 × 60 s, 5 × 2 min, […], 5 × 10 min) and reconstructed using Fourier re-binning and a two-dimensional (2D) filtered back projection algorithm with a ramp filter. Image data were then smoothed with a Gaussian filter (5 mm FWHM). The PET reconstruction process included corrections for scatter, randoms and attenuation. Dynamic PET data were corrected for motion via frame-to-frame image registration and aligned with the structural T1 MRI image using SPM5 (Wellcome Trust Centre for Neuroimaging, http://www.fil.ion.ucl.ac.uk/spm) with a mutual information cost function.
# The CIC Neuroanatomical Atlas was non-linearly deformed into the individual's space to obtain a personalised anatomical parcellation of ROIs. These ROIs were applied to the dynamic emission data, and regional TACs were obtained for the whole brain, frontal cortex, occipital cortex, striatum, thalamus, hippocampus and cerebellum. […]
# [1] = male, whole brain, intravenous, two-tissue compartmental model, read-out: whole brain VT
smiles,measurement,setting,value
Cc1cc(F)c2[nH]c(=O)n(C3CCN(C4CCOCC4)CC3)c2c1 [GSK1034702],Kp,"male, cortex, intravenous, read-out: VT measured in the human cortex",4.9
same,Kp,[1],4.9
[11CH3]c1cc(F)c2[nH]c(=O)n(C3CCN(C4CCOCC4)CC3)c2c1 [[^11C]GSK1034702],K 1,"Cerebellum, Subject 1 Scan 1 (baseline)",0.23 mL.cm^−3.min^−1
same,K 1,"Cerebellum, Subject 2 Scan 1 (baseline)",0.19 mL.cm^−3.min^−1
same,K 1,"Cerebellum, Subject 2 Scan 2 (post dose, 5 mg oral)",0.15 mL.cm^−3.min^−1
same,K 1,"Cerebellum, Subject 4 Scan 1 (baseline)",0.19 mL.cm^−3.min^−1
same,K 1,"Cerebellum, Subject 4 Scan 2 (post dose, 5 mg oral)",0.19 mL.cm^−3.min^−1
same,K 1,"Cortex, Subject 1 Scan 1 (baseline)",0.19 mL.cm^−3.min^−1
same,K 1,"Cortex, Subject 2 Scan 1 (baseline)",0.16 mL.cm^−3.min^−1
same,K 1,"Cortex, Subject 2 Scan 2 (post dose, 5 mg oral)",0.12 mL.cm^−3.min^−1
same,K 1,"Cortex, Subject 4 Scan 1 (baseline)",0.16 mL.cm^−3.min^−1
same,K 1,"Cortex, Subject 4 Scan 2 (post dose, 5 mg oral)",0.17 mL.cm^−3.min^−1
same,K 1,"MTL, Subject 1 Scan 1 (baseline)",0.33 mL.cm^−3.min^−1
same,K 1,"MTL, Subject 2 Scan 1 (baseline)",0.19 mL.cm^−3.min^−1
same,K 1,"MTL, Subject 2 Scan 2 (post dose, 5 mg oral)",0.16 mL.cm^−3.min^−1
same,K 1,"MTL, Subject 4 Scan 1 (baseline)",0.24 mL.cm^−3.min^−1
same,K 1,"MTL, Subject 4 Scan 2 (post dose, 5 mg oral)",0.25 mL.cm^−3.min^−1
same,K 1,"Striatum, Subject 1 Scan 1 (baseline)",0.20 mL.cm^−3.min^−1
same,K 1,"Striatum, Subject 2 Scan 1 (baseline)",0.16 mL.cm^−3.min^−1
same,K 1,"Striatum, Subject 2 Scan 2 (post dose, 5 mg oral)",0.13 mL.cm^−3.min^−1
same,K 1,"Striatum, Subject 4 Scan 1 (baseline)",0.18 mL.cm^−3.min^−1
same,K 1,"Striatum, Subject 4 Scan 2 (post dose, 5 mg oral)",0.18 mL.cm^−3.min^−1
same,K 1,"Thalamus, Subject 1 Scan 1 (baseline)",0.29 mL.cm^−3.min^−1
same,K 1,"Thalamus, Subject 2 Scan 1 (baseline)",0.19 mL.cm^−3.min^−1
same,K 1,"Thalamus, Subject 2 Scan 2 (post dose, 5 mg oral)",0.15 mL.cm^−3.min^−1
same,K 1,"Thalamus, Subject 4 Scan 1 (baseline)",0.20 mL.cm^−3.min^−1
same,K 1,"Thalamus, Subject 4 Scan 2 (post dose, 5 mg oral)",0.20 mL.cm^−3.min^−1
same,K 1,"White matter, Subject 1 Scan 1 (baseline)",0.13 mL.cm^−3.min^−1
same,K 1,"White matter, Subject 2 Scan 1 (baseline)",0.10 mL.cm^−3.min^−1
same,K 1,"White matter, Subject 2 Scan 2 (post dose, 5 mg oral)",0.08 mL.cm^−3.min^−1
same,K 1,"White matter, Subject 4 Scan 1 (baseline)",0.11 mL.cm^−3.min^−1
same,K 1,"White matter, Subject 4 Scan 2 (post dose, 5 mg oral)",0.11 mL.cm^−3.min^−1
same,change in MTL VT following oral dose of 5 mg GSK1034702,both subjects with pre- and post-dose data,small (but non-significant) reduction
same,Kp,"brain cortex, intravenous, Cortex, Subject 1 Scan 1 (baseline), read-out: V T",5.37
same,Kp,"brain cortex, intravenous, Cortex, Subject 2 Scan 1 (baseline), read-out: V T",5
same,Kp,"brain cortex, intravenous, Cortex, Subject 4 Scan 1 (baseline), read-out: V T",5.57
same,Kp,"brain cortex, po, Cortex, Subject 2 Scan 2 (post dose, 5 mg oral), read-out: V T",4.03
same,Kp,"brain cortex, po, Cortex, Subject 4 Scan 2 (post dose, 5 mg oral), read-out: V T",4.81
same,Kp,"brain striatum, intravenous, Striatum, Subject 1 Scan 1 (baseline), read-out: V T",5.59
same,Kp,"brain striatum, intravenous, Striatum, Subject 2 Scan 1 (baseline), read-out: V T",5.05
same,Kp,"brain striatum, intravenous, Striatum, Subject 4 Scan 1 (baseline), read-out: V T",5.83
same,Kp,"brain striatum, po, Striatum, Subject 2 Scan 2 (post dose, 5 mg oral), read-out: V T",5.29
same,Kp,"brain striatum, po, Striatum, Subject 4 Scan 2 (post dose, 5 mg oral), read-out: V T",4.93
same,Kp,"brain white matter, intravenous, White matter, Subject 4 Scan 1 (baseline), read-out: V T",5.04
same,Kp,"cerebellum, intravenous, Cerebellum, Subject 1 Scan 1 (baseline), read-out: V T",5.33
same,Kp,"cerebellum, intravenous, Cerebellum, Subject 2 Scan 1 (baseline), read-out: V T",4.75
same,Kp,"cerebellum, intravenous, Cerebellum, Subject 4 Scan 1 (baseline), read-out: V T",5.17
same,Kp,"cerebellum, po, Cerebellum, Subject 2 Scan 2 (post dose, 5 mg oral), read-out: V T",3.69
same,Kp,"cerebellum, po, Cerebellum, Subject 4 Scan 2 (post dose, 5 mg oral), read-out: V T",4.56
same,Kp,"medial temporal lobe (MTL), intravenous, MTL, Subject 1 Scan 1 (baseline), read-out: V T",7.81
same,Kp,"medial temporal lobe (MTL), intravenous, MTL, Subject 2 Scan 1 (baseline), read-out: V T",13.3
same,Kp,"medial temporal lobe (MTL), intravenous, MTL, Subject 4 Scan 1 (baseline), read-out: V T",7.11
same,Kp,"medial temporal lobe (MTL), po, MTL, Subject 2 Scan 2 (post dose, 5 mg oral), read-out: V T",8.3
same,Kp,"medial temporal lobe (MTL), po, MTL, Subject 4 Scan 2 (post dose, 5 mg oral), read-out: V T",6.91
same,change in K1 following oral dose of 5 mg GSK1034702,post-dose versus baseline scan,no significant change
same,change in VT following oral dose of 5 mg GSK1034702,post-dose versus baseline scan,no significant change
same,Kp,"thalamus, intravenous, Thalamus, Subject 1 Scan 1 (baseline), read-out: V T",6.29
same,Kp,"thalamus, intravenous, Thalamus, Subject 2 Scan 1 (baseline), read-out: V T",5.44
same,Kp,"thalamus, intravenous, Thalamus, Subject 4 Scan 1 (baseline), read-out: V T",5.74
same,Kp,"thalamus, po, Thalamus, Subject 2 Scan 2 (post dose, 5 mg oral), read-out: V T",4.39
same,Kp,"thalamus, po, Thalamus, Subject 4 Scan 2 (post dose, 5 mg oral), read-out: V T",5.11
same,Kp,"white matter, intravenous, White matter, Subject 1 Scan 1 (baseline), read-out: V T",4.63
same,Kp,"white matter, intravenous, White matter, Subject 2 Scan 1 (baseline), read-out: V T",4.38
same,Kp,"white matter, po, White matter, Subject 2 Scan 2 (post dose, 5 mg oral), read-out: V T",4.01
same,Kp,"white matter, po, White matter, Subject 4 Scan 2 (post dose, 5 mg oral), read-out: V T",4.49
same,Kp,"male, medial temporal lobe (MTL), intravenous, range over scans, read-out: VT in the MTL",7 to 13
same,Kp,"male, white matter, intravenous, range over scans, read-out: VT in the white matter",4 to 5
same,Kp,[1],4.9
